Assay results reported in ChEMBL document CHEMBL3352775, “Identification of substituted 3-hydroxy-2-mercaptocyclohex-2-enones as potent inhibitors of human lactate dehydrogenase” (Bioorg Med Chem Lett, 2014).
pIC50: −log10 of the molar value.

The compounds below were run against L-lactate dehydrogenase A chain (Homo sapiens, UniProt P00338) (assay: Inhibition of human recombinant carboxy-terminal His-tagged LDHA by UV endpoint assay).
For `O=C1CC(c2ccccc2)CC(O)=C1Sc1cccc(OC(F)(F)F)c1` (stereo unspecified), the pIC50 was less than 4.00. In the case of `O=C1CC(c2ccccc2)CC(O)=C1Sc1ccccc1F` (stereo unspecified), the pIC50 was 4.28. For `Cc1ccnc(SC2=C(O)CC(c3ccccc3)CC2=O)n1` (stereo unspecified), the pIC50 was less than 4.00. `O=C1CC(c2ccccc2)CC(O)=C1Sc1ccc(C(F)(F)F)cc1` (stereo unspecified) gave a pIC50 of less than 4.00. Compound `Nc1nnc(SC2=C(O)CC(c3ccccc3)CC2=O)s1` (stereo unspecified) has a pIC50 of less than 4.00. For `Nc1cc(N)nc(SC2=C(O)CC(c3ccccc3)CC2=O)n1` (stereo unspecified), the pIC50 was less than 4.00. Work on `CSc1ccc(SC2=C(O)CC(c3ccccc3)CC2=O)cc1` (stereo unspecified) yielded a pIC50 of less than 4.00. In the case of `O=C1CC(c2ccccc2)CC(O)=C1Sc1ccc(Cl)cc1` (stereo unspecified), the pIC50 was less than 4.00. With `CCC(C)CSC1=C(O)CC(c2ccccc2)CC1=O` (stereo unspecified) the pIC50 was less than 4.00. `O=C1CC(c2ccccc2)CC(O)=C1SCc1cccc(C(F)(F)F)c1` (stereo unspecified) gave a pIC50 of less than 4.00. With `O=C1CC(c2ccccc2)CC(O)=C1Sc1cccc2ccccc12` (stereo unspecified) the pIC50 was less than 4.00. `Cc1cc(C)c(SC2=C(O)CC(c3ccccc3)CC2=O)nc1C#N` (stereo unspecified) showed a pIC50 of less than 4.00. For `O=C1CC(c2ccccc2)CC(O)=C1Sc1ccc(O)cc1` (stereo unspecified), the pIC50 was less than 4.00. With `Cc1cccc(C)c1SC1=C(O)CC(c2ccccc2)CC1=O` (stereo unspecified) the pIC50 was less than 4.00. Compound `CCOC(=O)c1cnc(SC2=C(O)CC(c3ccccc3)CC2=O)nc1N` (stereo unspecified) has a pIC50 of less than 4.00. For `O=C1CC(c2ccccc2)CC(O)=C1Sc1ccc(F)cc1` (stereo unspecified), the pIC50 was less than 4.00. `Cc1ccc2nc(SC3=C(O)CC(c4ccccc4)CC3=O)[nH]c2c1` (stereo unspecified) gave a pIC50 of less than 4.00. Work on `CC(=O)Nc1ccc(SC2=C(O)CC(c3ccccc3)CC2=O)cc1` (stereo unspecified) yielded a pIC50 of less than 4.00. With `O=C1CC(c2ccccc2)CC(O)=C1SCc1ccccc1` (stereo unspecified) the pIC50 was less than 4.00. With `O=C1CC(c2ccccc2)CC(O)=C1Sc1ccccc1Br` (stereo unspecified) the pIC50 was 4.28. `COc1ccccc1SC1=C(O)CC(c2ccccc2)CC1=O` (stereo unspecified) gave a pIC50 of less than 4.00. `O=C1CC(c2ccccc2)CC(O)=C1Sc1cc(Cl)cc(Cl)c1` (stereo unspecified) gave a pIC50 of less than 4.00. `Nc1cccc(SC2=C(O)CC(c3ccccc3)CC2=O)c1` (stereo unspecified) was tested, and the pIC50 was less than 4.00. `O=C1CC(c2ccccc2)CC(O)=C1Sc1ncc[nH]1` (stereo unspecified) showed a pIC50 of less than 4.00. Compound `Cc1ccc(C)c(SC2=C(O)CC(c3ccccc3)CC2=O)c1` (stereo unspecified) has a pIC50 of less than 4.19. `Cc1ccc(SC2=C(O)CC(c3ccccc3)CC2=O)cc1C` (stereo unspecified) was tested, and the pIC50 was less than 4.00. With `COC(=O)CSC1=C(O)CC(c2ccccc2)CC1=O` (stereo unspecified) the pIC50 was less than 4.00. `CS(=O)(=O)c1ccccc1SC1=C(O)CC(c2ccccc2)CC1=O` (stereo unspecified) showed a pIC50 of less than 4.00. With `Cc1cc(C)cc(SC2=C(O)CC(c3ccccc3)CC2=O)c1` (stereo unspecified) the pIC50 was less than 4.00. Compound `O=C1CC(c2ccccc2)CC(O)=C1Sc1ccccc1O` (stereo unspecified) has a pIC50 of less than 4.00. For `O=C1CC(c2ccccc2)CC(O)=C1Sc1ccc(F)cc1Cl` (stereo unspecified), the pIC50 was 4.62. In the case of `O=C1CC(c2ccccc2)CC(O)=C1Sc1cccc(Cl)c1` (stereo unspecified), the pIC50 was less than 4.00. With `O=C1CC(c2ccccc2)CC(O)=C1Sc1ccccn1` (stereo unspecified) the pIC50 was less than 4.00. `O=C1CC(c2ccccc2)CC(O)=C1Sc1nccs1` (stereo unspecified) showed a pIC50 of less than 4.00. `O=C1CC(c2ccccc2)CC(O)=C1Sc1cccc(Cl)c1F` (stereo unspecified) gave a pIC50 of less than 4.00. With `O=C1CC(c2ccccc2)CC(O)=C1Sc1ccccc1` (stereo unspecified) the pIC50 was less than 4.00. Compound `O=C1CC(c2ccccc2)CC(O)=C1SC1CCCCC1` (stereo unspecified) has a pIC50 of less than 4.00. `O=C1CC(c2ccccc2)CC(O)=C1Sc1nc2ccc(Cl)cc2[nH]1` (stereo unspecified) gave a pIC50 of less than 4.00. In the case of `O=C1CC(c2ccccc2)CC(O)=C1Sc1cccs1` (stereo unspecified), the pIC50 was less than 4.00. In the case of `Cc1ccccc1CSC1=C(O)CC(c2ccccc2)CC1=O` (stereo unspecified), the pIC50 was less than 4.00. Work on `O=C1CC(c2ccccc2)CC(O)=C1Sc1nncs1` (stereo unspecified) yielded a pIC50 of less than 4.00. With `Cc1cnc(SC2=C(O)CC(c3ccccc3)CC2=O)nc1O` (stereo unspecified) the pIC50 was less than 4.00. With `O=C1CC(c2ccccc2)CC(O)=C1Sc1ccc(C(=O)O)cc1` (stereo unspecified) the pIC50 was less than 4.00. Work on `CCc1ccccc1SC1=C(O)CC(c2ccccc2)CC1=O` (stereo unspecified) yielded a pIC50 of less than 4.00. Work on `COc1ccc(SC2=C(O)CC(c3ccccc3)CC2=O)cc1OC` (stereo unspecified) yielded a pIC50 of less than 4.00. `CC(C)SC1=C(O)CC(c2ccccc2)CC1=O` (stereo unspecified) showed a pIC50 of less than 4.00. Work on `Nc1ccc2nc(SC3=C(O)CC(c4ccccc4)CC3=O)[nH]c2c1` (stereo unspecified) yielded a pIC50 of less than 4.00. `Cc1cccc(CSC2=C(O)CC(c3ccccc3)CC2=O)c1` (stereo unspecified) gave a pIC50 of less than 4.00. With `Cc1ccc(CSC2=C(O)CC(c3ccccc3)CC2=O)cc1` (stereo unspecified) the pIC50 was less than 4.00. `O=C1CC(c2ccccc2)CC(O)=C1SCc1ccc(Cl)cc1Cl` (stereo unspecified) gave a pIC50 of less than 4.00. For `COC(=O)c1ccccc1SC1=C(O)CC(c2ccccc2)CC1=O` (stereo unspecified), the pIC50 was less than 4.00. With `O=C1CC(c2ccccc2)CC(O)=C1Sc1cccc(F)c1` (stereo unspecified) the pIC50 was less than 4.00. `COc1ccc(SC2=C(O)CC(c3ccccc3)CC2=O)cc1` (stereo unspecified) gave a pIC50 of less than 4.00. `O=C1CC(c2ccccc2)CC(O)=C1SCc1ccc(F)cc1` (stereo unspecified) gave a pIC50 of less than 4.00. `O=C1CC(c2ccccc2)CC(O)=C1Sc1ccccc1CO` (stereo unspecified) was tested, and the pIC50 was 4.44. With `O=C1CC(c2ccccc2)CC(O)=C1Sc1nc(O)cc(C(F)(F)F)n1` (stereo unspecified) the pIC50 was less than 4.00. `Cc1ccc(SC2=C(O)CC(c3ccccc3)CC2=O)cc1` (stereo unspecified) showed a pIC50 of less than 4.00. In the case of `COc1cccc(SC2=C(O)CC(c3ccccc3)CC2=O)c1` (stereo unspecified), the pIC50 was less than 4.00. Work on `Cc1ccc(SC2=C(O)CC(c3ccccc3)CC2=O)c(C)c1` (stereo unspecified) yielded a pIC50 of less than 4.00. Work on `N#Cc1ccccc1SC1=C(O)CC(c2c(Br)cccc2Br)CC1=O` (stereo unspecified) yielded a pIC50 of 6.74. `O=C1CC(c2ccccc2)CC(O)=C1Sc1cccc(Br)c1` (stereo unspecified) showed a pIC50 of less than 4.00. Work on `NC(=O)c1ccccc1SC1=C(O)CC(c2ccccc2)CC1=O` (stereo unspecified) yielded a pIC50 of less than 4.00. Work on `CSc1nnc(SC2=C(O)CC(c3ccccc3)CC2=O)s1` (stereo unspecified) yielded a pIC50 of less than 4.00. With `O=C1CC(c2ccccc2)CC(O)=C1Sc1ccc2ccccc2c1` (stereo unspecified) the pIC50 was less than 4.00. `O=C1CC(c2ccccc2)CC(O)=C1Sc1ncccn1` (stereo unspecified) gave a pIC50 of less than 4.00. Compound `O=C1CC(c2ccccc2)CC(O)=C1Sc1ccc(F)cc1F` (stereo unspecified) has a pIC50 of less than 4.00. With `O=C1CC(c2ccccc2)CC(O)=C1Sc1c(Cl)cccc1Cl` (stereo unspecified) the pIC50 was less than 4.00. `O=C1CC(c2ccccc2)CC(O)=C1Sc1ccccc1C(F)(F)F` (stereo unspecified) was tested, and the pIC50 was less than 4.18. With `O=C1CC(c2ccccc2)CC(O)=C1Sc1nc2ccccc2o1` (stereo unspecified) the pIC50 was less than 4.00. `O=C1CC(c2ccccc2)CC(O)=C1Sc1ccc(Br)cc1` (stereo unspecified) showed a pIC50 of less than 4.00. Work on `Cc1csc(SC2=C(O)CC(c3ccccc3)CC2=O)n1` (stereo unspecified) yielded a pIC50 of less than 4.00. With `O=C1CC(c2ccccc2)CC(O)=C1Sc1ccc(Cl)c(Cl)c1` (stereo unspecified) the pIC50 was less than 4.00. For `Cc1cc(C)nc(SC2=C(O)CC(c3ccccc3)CC2=O)n1` (stereo unspecified), the pIC50 was less than 4.00. `CC(C)C(C)SC1=C(O)CC(c2ccccc2)CC1=O` (stereo unspecified) was tested, and the pIC50 was less than 4.00. Work on `Cc1cccc(SC2=C(O)CC(c3ccccc3)CC2=O)c1` (stereo unspecified) yielded a pIC50 of less than 4.00. `COc1ccc(OC)c(SC2=C(O)CC(c3ccccc3)CC2=O)c1` (stereo unspecified) was tested, and the pIC50 was less than 4.00. For `NC(=O)c1cccc(SC2=C(O)CC(c3ccccc3)CC2=O)c1` (stereo unspecified), the pIC50 was less than 4.00. Work on `Cc1cccc(Cl)c1SC1=C(O)CC(c2ccccc2)CC1=O` (stereo unspecified) yielded a pIC50 of less than 4.00. Work on `COc1ccc(CSC2=C(O)CC(c3ccccc3)CC2=O)cc1` (stereo unspecified) yielded a pIC50 of less than 4.00. With `Cc1nnc(SC2=C(O)CC(c3ccccc3)CC2=O)s1` (stereo unspecified) the pIC50 was less than 4.00. `Cc1ccccc1SC1=C(O)CC(c2ccccc2)CC1=O` (stereo unspecified) gave a pIC50 of less than 4.00. `O=C1CC(c2ccccc2)CC(O)=C1Sc1ccccc1C(=O)O` (stereo unspecified) gave a pIC50 of less than 4.00. For `O=C1CC(c2ccccc2)CC(O)=C1Sc1cccc(C(F)(F)F)c1` (stereo unspecified), the pIC50 was less than 4.00. `NS(=O)(=O)c1cccc(SC2=C(O)CC(c3ccccc3)CC2=O)c1` (stereo unspecified) gave a pIC50 of less than 4.00. `Nc1ccc(SC2=C(O)CC(c3ccccc3)CC2=O)cc1` (stereo unspecified) was tested, and the pIC50 was less than 4.00. Compound `COC(=O)CCSC1=C(O)CC(c2ccccc2)CC1=O` (stereo unspecified) has a pIC50 of less than 4.00. In the case of `CCc1ccc(SC2=C(O)CC(c3ccccc3)CC2=O)cc1` (stereo unspecified), the pIC50 was less than 4.00. With `O=C1CC(c2ccccc2)CC(O)=C1Sc1cccc(Cl)c1Cl` (stereo unspecified) the pIC50 was 4.20. Compound `O=C1CC(c2ccccc2)CC(O)=C1Sc1cc(Cl)ccc1Cl` (stereo unspecified) has a pIC50 of 4.92. For `O=C1CC(c2ccccc2)CC(O)=C1SCCO` (stereo unspecified), the pIC50 was less than 4.00. `O=C1CC(c2ccccc2)CC(O)=C1Sc1nc2ccccc2s1` (stereo unspecified) gave a pIC50 of less than 4.00.
